Measurements reported in patent US4711898A, “4-quinolone derivatives having anti-inflammatory, anti-allergic, antitussive, expectorant and antithrombotic activity” (Nippon Shinyaku Co., Ltd., priority 1982, dated 1987).

Key:
[1] = test system: passive cutaneous anaphylaxis (DNP-As homocytotropic antiserum); assay: passive cutaneous anaphylatic assay (PCA) in rats; format: in vivo, Wistar strain rats; settings: 10 mg/kg orally, one hour before antigen; for inhibition in vivo at 10 mg/kg: Rattus norvegicus, po, 1 h, read-out: PCA Inhibition Ratio %; for PCA Inhibition Ratio %: listed as H
Procedure: (§1) The compounds of the present invention have been evaluated for their anti-allergenic action by passive cutaneous anaphylatic assay (PCA) in rats and by measuring the anti-SRS-A action using ileus of guinea pigs.
(i) Antiserum abundant in homocytotropic antibody is prepared by the same method as Tada and Okumura did (cf. Journal of Immunology, vol. 106, page 1002, 1971). Thus, 1 mg (calculated as an amount of protein) of DNP-As (2,4-dinitrophenylcoupled ascaris extract) prepared by methods of Strejan and Campbell (Journal of Immunology, vol. 98, p. 893, 1967) and of Eisen (Journal of Amer. Chem. Soc., vol. 75, p 4593, 1953) and 1×10^10pertussis vaccine are administered to each paw of Wistar strain rats (180 to 200 grams body weights) by dividing the dose by four. Five days later, 0.5 mg of DNP-As is administered into muscle of back. Eight days later from the initial immunization, blood is taken from discending aorta under anesthetizing with ether, the resulting serum is stored at -80° and is melted before use.
(ii) Effect of tested compounds is investigated as follows:
Anti-serum obtained by th method (i) is diluted with physiological saline solution double by double successively and 0.05 ml of each diluted solution is administered into the back of Wistar strain rats (140 to 160 grams body weight) intradermally. After 72 hours, a solution of 2 mg (calculated as protein) of DNP-As and 2.5 mg of Evans Blue dissolved in 1 ml of physiological saline solution is administered intraveously at a dose of 5 ml/kg. After 30 minutes from the antigen solution administration, the animals are killed and the diameters of blue spots which appeared at the place where antiserum was administered were measured. The PCA test is conducted by the same method as already described using a diluted solutions of antiserum which always show 10 mm or more of spot diameters and the effect of the test compounds is judged. Thus antiserum diluted solutions are administered into two places in the back. Test compounds are administered orally at the dose of 10 mg/kg one hour before administration of the antigen solution. From the skin of reacted parts of killed animals, leaked or emitted dyestuff is extracted and the amount of the dyestuff is measured. The inhibition ratio is calculated by the following expression: [formula] in which A' is an amount of dyestuff in the group treated with the test compounds and A is that in the control group.

[2] = test system: SRS-A (slow reacting substance of anaphylaxis) contraction of ileum; assay: Anti-SRS-A action using ileus of guinea pigs; format: cell-based, Hartley strain male guinea pigs; settings: 5 min, guinea pig ileum, SRS-A 20 units, compound five minutes before; for inhibition at 1 µM: Cavia porcellus, 1/1000 mM, read-out: 1/1000 mM SRS-A Inhibition Ratio %
Procedure: as §1
Anti-SRS-A action (An anti-acton against slow reacting substance of anaphylaxis).
Hartley strain male guinea pigs (300 to 350 grams body weight) are killed and 1.0 to 1.5 cm of ileum is immeidiately excised from ileocecal parts and is suspended in 10 ml of Tyrode solution (95% 02 -5% CO2 saturation) containing 10^-7 g/ml of atropine and 10^-6 g/ml of pyrilamine. SRS-A (20 units) (the amount of SRS-A showing the same contradiction as 5 ng of histamine is defined as 1 unit) prepared by using sensitized guinea pig lung is given to cause contraction there. Then antagonistic action of test compounds treated five minutes ago against the contraction is measured and recorded via isotonic transducer. [formula] in which A' is a height of contraction of SRS-A+test compound and A is that of SRS-A.

COc1ccccc1C1=Nc2ccc(C(=O)O)cc2C(=O)C1 [Example 57, 2-(2-methoxyphenyl)-4-quinolone-6-carboxylic acid] showed an inhibition in vivo at 10 mg/kg [1] of 20.4% and an inhibition at 1 µM [2] of 27.7%.

Compound CCOc1ccccc1-c1cc(=O)c2cc(C(=O)OC)ccc2[nH]1 [Example 58] has an inhibition in vivo at 10 mg/kg [1] of 23.1% and an inhibition at 1 µM [2] of 63%.

For CCOc1ccccc1-c1cc(=O)c2cc(C(=O)O)ccc2[nH]1 [Example 59], the inhibition in vivo at 10 mg/kg [1] was 15.8% and the inhibition at 1 µM [2] was 24.6%.

Work on COC(=O)c1ccc2[nH]c(-c3ccccc3OC(C)C)cc(=O)c2c1 [Example 60] yielded an inhibition in vivo at 10 mg/kg [1] of 21.2% and an inhibition at 1 µM [2] of 58.8%.

Compound CC(C)Oc1ccccc1-c1cc(=O)c2cc(C(=O)O)ccc2[nH]1 [Example 61] has an inhibition in vivo at 10 mg/kg [1] of 20.1% and an inhibition at 1 µM [2] of 31.8%.

COC(=O)c1ccc2[nH]c(-c3ccc(OC)cc3)cc(=O)c2c1 [Example 62] was tested, and the inhibition in vivo at 10 mg/kg [1] was 19% and the inhibition at 1 µM [2] was 27.4%.

COc1ccc(-c2cc(=O)c3cc(C(=O)O)ccc3[nH]2)cc1 [Example 63] gave an inhibition in vivo at 10 mg/kg [1] of 18.4% and an inhibition at 1 µM [2] of 23%.

COc1ccc(-c2cc(=O)c3cc(C(=O)O)ccc3[nH]2)c(OC)c1 [Example 65] gave an inhibition in vivo at 10 mg/kg [1] of 26.9% and an inhibition at 1 µM [2] of 27.3%.

For COC(=O)c1ccc2[nH]c(-c3ccc(OC)c(OC)c3)cc(=O)c2c1 [Example 66], the inhibition in vivo at 10 mg/kg [1] was 25.4% and the inhibition at 1 µM [2] was 25.7%.

In the case of COc1ccc(-c2cc(=O)c3cc(C(=O)O)ccc3[nH]2)cc1OC [Example 67], the inhibition in vivo at 10 mg/kg [1] is reported as 17.4% and the inhibition at 1 µM [2] is reported as 25%.

Compound COC(=O)c1ccc(-c2cc(=O)c3cc(C(=O)OC)ccc3[nH]2)cc1 [Example 68] has an inhibition in vivo at 10 mg/kg [1] of 19.8% and an inhibition at 1 µM [2] of 36.8%.

Work on O=C(O)c1ccc(-c2cc(=O)c3cc(C(=O)O)ccc3[nH]2)cc1 [Example 69] yielded an inhibition in vivo at 10 mg/kg [1] of 25.8% and an inhibition at 1 µM [2] of 27.9%.

With O=C(O)c1ccc2[nH]c(-c3ccncc3)cc(=O)c2c1 [Example 71] the inhibition in vivo at 10 mg/kg [1] was 25.6% and the inhibition at 1 µM [2] was 25%.

Work on COC(=O)c1ccc2[nH]c(-c3cccnc3)cc(=O)c2c1 [Example 72] yielded an inhibition in vivo at 10 mg/kg [1] of 17.8% and an inhibition at 1 µM [2] of 22%.

For O=C(O)c1ccc2[nH]c(-c3cccnc3)cc(=O)c2c1 [Example 73], the inhibition in vivo at 10 mg/kg [1] was 20.4% and the inhibition at 1 µM [2] was 23.8%.

COC(=O)c1ccc2[nH]c(-c3ccccn3)cc(=O)c2c1 [Example 74] gave an inhibition in vivo at 10 mg/kg [1] of 23.1% and an inhibition at 1 µM [2] of 25%.

Compound O=C(O)c1ccc2[nH]c(-c3ccccn3)cc(=O)c2c1 [Example 75] has an inhibition in vivo at 10 mg/kg [1] of 20.4% and an inhibition at 1 µM [2] of 28.9%.

Work on O=C(O)c1ccc2[nH]c(-c3ccco3)cc(=O)c2c1 [Example 77] yielded an inhibition in vivo at 10 mg/kg [1] of 17.4% and an inhibition at 1 µM [2] of 21%.

COC(=O)c1ccc2[nH]c(-c3cccs3)cc(=O)c2c1 [Example 78] showed an inhibition in vivo at 10 mg/kg [1] of 26.7% and an inhibition at 1 µM [2] of 23.3%.

Work on O=C(O)c1ccc2[nH]c(-c3cccs3)cc(=O)c2c1 [Example 79] yielded an inhibition in vivo at 10 mg/kg [1] of 19.8% and an inhibition at 1 µM [2] of 19.5%.

In the case of O=C(O)c1cccc2c(=O)cc(-c3ccccc3)[nH]c12 [Example 81], the “PCA Inhibition Ratio %” value ([1]; H) is reported as 35.3% and the inhibition at 1 µM [2] is reported as 26.4%.

For O=C(O)c1cccc2c(=O)cc(-c3ccccc3)[nH]c12 [Example 82], the “PCA Inhibition Ratio %” value ([1]; Na salt) was 10.0% and the “1/1000 mM SRS-A Inhibition Ratio %” value ([2]; listed as H, Na salt, 1 µM) was 27.3%.

O=C(O)c1cccc2c(=O)cc(-c3cccc(Cl)c3)[nH]c12 [Example 87] showed an inhibition in vivo at 10 mg/kg [1] of 19.3% and an inhibition at 1 µM [2] of 20.7%.

COC(=O)c1cccc2c(=O)cc(-c3ccc(Cl)cc3Cl)[nH]c12 [Example 88] was tested, and the inhibition in vivo at 10 mg/kg [1] was 17.5% and the inhibition at 1 µM [2] was 45.5%.

O=C(O)c1cccc2c(=O)cc(-c3ccc(Cl)cc3Cl)[nH]c12 [Example 90] showed an inhibition in vivo at 10 mg/kg [1] of 23.4% and an inhibition at 1 µM [2] of 53.6%.

O=C(O)c1cccc2c(=O)cc(-c3ccc(Cl)c(Cl)c3)[nH]c12 [Example 91] showed an inhibition in vivo at 10 mg/kg [1] of 22.7% and an inhibition at 1 µM [2] of 24.2%.

With Cc1ccc(-c2cc(=O)c3cccc(C(=O)O)c3[nH]2)cc1 [Example 93] the inhibition in vivo at 10 mg/kg [1] was 23.5% and the inhibition at 1 µM [2] was 26.7%.
